Experimental data as given in PMC11062906 (Nature, 2024).
Blank lines part the entries; values can stand above or below the compound they belong to.

Key:
BmGr9 [1] = target: T1, BmGr9 (Bombyx mori, UniProt B3GTD7); test: Cell-based GCaMP calcium flux assay, wild-type BmGr9; conditions: 100 mM sweet compound, HEK293 cells with BmGr9 plus GCaMP vs GCaMP only
BmGr9 [2] = target: T1, BmGr9; test: Intrinsic tryptophan fluorescence of detergent-solubilized purified BmGr9; assay type: binding; conditions: titration of purified BmGr9
[3] = target: Bombyx mori gustatory receptor Gr9 (BmGr9) (Bombyx mori) (UniProt B3GTD7); test: native gel or EMSA; Coomassie-stained denaturing and native gels of purified BmGr9; effective molecular weight approximately 700 kDa including detergent micelle

T1 sequence (B3GTD7 entry or part of it): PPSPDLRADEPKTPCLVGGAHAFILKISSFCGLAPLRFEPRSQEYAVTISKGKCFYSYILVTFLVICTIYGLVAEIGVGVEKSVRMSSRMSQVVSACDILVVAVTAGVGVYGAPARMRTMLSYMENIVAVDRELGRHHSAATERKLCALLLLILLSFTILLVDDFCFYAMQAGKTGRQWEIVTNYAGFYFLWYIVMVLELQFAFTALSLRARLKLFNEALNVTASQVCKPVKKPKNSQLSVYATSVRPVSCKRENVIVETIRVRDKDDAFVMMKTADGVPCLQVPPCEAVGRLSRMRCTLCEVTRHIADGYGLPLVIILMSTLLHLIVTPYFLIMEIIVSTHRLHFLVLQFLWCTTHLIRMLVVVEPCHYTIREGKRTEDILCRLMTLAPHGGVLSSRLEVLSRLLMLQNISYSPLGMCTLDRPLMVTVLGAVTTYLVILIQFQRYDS

Activation of BmGr9 (change in fluorescence) by sweet compound (BmGr9 [1]): significantly different activity
Compound: OC[C@H]1O[C@H](O[C@]2(CCl)O[C@H](CCl)[C@@H](O)[C@@H]2O)[C@H](O)[C@@H](O)[C@H]1Cl [sucralose]

blue shift in the tryptophan fluorescence emission spectrum (BmGr9 [2]): did not induce a shift
Compound: OC[C@H]1O[C@@](CO)(O[C@H]2O[C@H](CO)[C@@H](O)[C@H](O)[C@H]2O)[C@@H](O)[C@@H]1O [sucrose]

stoichiometry N [3]: 4
Compound: Bombyx mori gustatory receptor Gr9 (BmGr9) (from UniProt B3GTD7 2-449)
